Results from patent US7745375B2, “Synergistic insecticide mixtures” (Bayer CropScience AG, priority 2003, dated 2010).

Tests used:
Assay type in all cases: in vivo
[1] = tested on: Aphis gossypii; assay: Example A Aphis gossypii test (cotton leaves dipped); conditions: single active compound, 0.8 ppm
Procedure: (§1) To prepare a suitable active compound preparation, 1 part by weight of active compound is mixed with the stated amounts of solvent and emulsifier, and the concentrate is diluted with emulsifier-comprising water to the desired concentration.
Cotton leaves (Gossypium hirsutum) which are severely infested with cotton aphids (Aphis gossypii) are treated by being dipped into the active compound preparation of the desired concentration.
(§2) After the desired period of time, the destruction is determined in %. In this context, 100% means that all of the aphids were destroyed; 0% means that no aphids were destroyed.

[2] = tested on: Bemisia tabaci; assay: Example B Bemisia tabaci test (cotton plants sprayed); conditions: single active compound, 0.8 ppm
Procedure: as §1
(§3) Cotton plants (Gossypium hirsutum) which are infested with whitefly (Bemisia tabaci) eggs, larvae and puparia are sprayed with the active compound preparation of the desired concentration.
(§4) After the desired period of time, the destruction is determined in %. In this context, 100% means that all of the whiteflies were destroyed; 0% means that no whiteflies were destroyed.

[3] = tested on: Heliothis armigera; assay: Example C Heliothis armigera test (soya bean shoots dipped); conditions: single active compound, 4 ppm
Procedure: as §1
Soya bean shoots (Glycine max) are treated by being dipped into the active compound preparation of the desired concentration and populated with Heliothis armigera caterpillars while the leaves are still damp.
(§5) After the desired period of time, the destruction is determined in %. In this context, 100% means that all of the caterpillars were destroyed; 0% means that no caterpillars were destroyed.

[4] = tested on: Myzus persicae; assay: Example D Myzus persicae test (cabbage leaves dipped); conditions: single active compound, 0.8 ppm
Procedure: as §1
(§6) Cabbage leaves (Brassica oleracea) which are severely infested with green peach aphids (Myzus persicae) are treated by being dipped into the active compound preparation of the desired concentration.
as §2

[5] = tested on: Plutella xylostella (normal strain); assay: Example E Plutella xylostella test (normal strain); conditions: single active compound, 20 ppm
Procedure: as §1
Cabbage leaves (Brassica oleracea) are treated by being dipped into the active compound preparation of the desired concentration and populated with diamondback moth caterpillars (Plutella xylostella/sensitive strain) while the leaves are still moist.
as §5

[6] = tested on: Heliothis armigera; assay: Example F Heliothis armigera test (soya bean shoots dipped); conditions: single active compound
Procedure: as §1
Soya bean shoots (glycine max) are treated by being dipped into the active compound preparation of the desired concentration and populated with Heliothis armigera caterpillars while the leaves are still moist.
as §5

[7] = tested on: Myzus persicae; assay: Example G Myzus test (cabbage leaves dipped); conditions: single active compound, 0.16 ppm
Procedure: as §1, §6, §2

[8] = tested on: Plutella xylostella/normal strain; assay: Example H Plutella test (normal strain); conditions: single active compound
Procedure: as §1
Cabbage leaves (Brassica oleracea) are treated by being dipped into the active compound preparation of the desired concentration and populated with diamondback moth caterpillars (Plutella xylostella/normal strain) while the leaves are still moist.
as §5

[9] = tested on: Spodoptera exigua; assay: Example I Spodoptera exigua test (cabbage leaves dipped); conditions: single active compound, 100 ppm
Procedure: as §1
(§7) Cabbage leaves (Brassica oleracea) are treated by being dipped into the active compound preparation of the desired concentration and populated with army worm caterpillars (Spodoptera exigua) while the leaves are still moist.
as §5

[10] = tested on: Spodoptera frugiperda; assay: Example J Spodoptera frugiperda test (cabbage leaves dipped); conditions: single active compound, 0.8 ppm
Procedure: as §1
Cabbage leaves (Brassica oleracea) are treated by being dipped into the active compound preparation of the desired concentration and populated with army worm caterpillars (Spodoptera frugiperda) while the leaves are still moist.
as §5

[11] = tested on: Bemisia tabaci; assay: Example K Bemisia tabaci test (cotton plants sprayed); conditions: single active compound, 0.16 ppm
Procedure: as §1, §3, §4

[12] = tested on: Heliothis armigera; assay: Example L Heliothis armigera test (soya bean shoots dipped); conditions: single active compound, 4 ppm
Procedure: as §1
Soya bean shoots (Glycine max) are treated by being dipped into the active compound preparation of the desired concentration and populated with Heliothis armigera caterpillars while the leaves are still moist.
as §5

[13] = tested on: Myzus persicae; assay: Example M Myzus persicae test (cabbage leaves dipped); conditions: single active compound, 0.16 ppm
Procedure: as §1, §6, §2

[14] = tested on: Spodoptera exigua; assay: Example N Spodoptera exigua test (cabbage leaves dipped); conditions: single active compound, 20 ppm
Procedure: as §1, §7, §5

| Compound | Destruction in % after 6 d [1] | Destruction in % after 12 d [2] | Destruction in % after 6 d [3] | Destruction in % after 6 d [4] | Destruction in % after 6 d [5] | Destruction in % after 7 d ([6]; 0.8 ppm) | Destruction in % after 6 d [7] | Destruction in % after 7 d ([8]; 4 ppm) | Destruction in % after 7 d [9] | Destruction in % after 7 d [10] | Destruction in % after 7 d ([6]; 4 ppm) | Destruction in % after 7 d ([8]; 20 ppm) | Destruction in % after 10 d [11] | Destruction in % after 6 d [12] | Destruction in % after 6 d [13] | Destruction in % after 6 d [14] |
| --- | --- | --- | --- | --- | --- | --- | --- | --- | --- | --- | --- | --- | --- | --- | --- | --- |
| N#C/N=C1\SCCN1Cc1ccc(Cl)nc1 [Thiacloprid, thiacloprid] | 25% | 80% | 35% | 20% | 15% | 0% | 10% | 0% | 0% | 10% | – | – | – | – | – | – |
| O=[N+]([O-])/N=C1\NCCN1Cc1ccc(Cl)nc1 [Imidacloprid, imidacloprid] | – | – | – | – | – | – | 10% | – | 45% | 20% | 10% | 15% | 5% | 10% | 50% | 10% |
| CN/C(=N\[N+](=O)[O-])NCc1cnc(Cl)s1 [Clothianidin, clothianidin] | 0% | 35% | 45% | 65% | 60% | – | – | – | – | – | – | – | 5% | 0% | 0% | 10% |
